The results in this text go back to patent US12643887B2, “Heterocyclic derivatives with cardiomyocyte proliferation activity for treatment of heart diseases” (Tongji University, priority 2019, dated 2026).

One experiment deals with T1, human CK2a2 (CSNK2a2) (Homo sapiens, UniProt P19784).
T1 construct: Recombinant human CK2a2 (CSNK2a2) (full length); GST (N); purchased SignalChem C71-10G; host or cells: Sf9 insect cells
Briefly: CK2a2 (CSNK2a2) enzyme assay (ADP-Glo). In kind it is biochemical. To be noted: ADP-Glo, ATP 15 μM; read-out: CK2 alpha 2 IC50. How it is done:
8. CK2a2 (CSNK2a2) Enzyme Assay
The ability of compounds to inhibit human CK2a2 (CSNK2a2) kinase activities was determined using a commercially available ADP-Glo™ Kinase Assay kit (Promega, Cat #V9102) according to the manufacturer's protocol.
Recombinant human CK2a2 (CSNK2a2) (full length) (expressed in Sf9 insect cells with an N-terminal GST tag) was purchased from SignalChem (Cat #C71-10G). CK2 substrate (sequence: […]) was purchased from SignalChem (Cat #C08-58). This assay, run in a 384-well plate format, is a generic method for measuring kinase activities using an ADP-Glo Kinase Assay Kit. The basic assay procedure involves two steps: (1) Enzymatic step: inhibitors are incubated with the kinase and then ATP (included in the ADP-Glo Kinase Assay Kit) and the MBP protein are added to start the enzymatic reaction; (2) Detection step: after the kinase reaction, first ADP-Glo™ Reagent is added to terminate the kinase reaction and deplete the remaining ATP. Second, the Kinase Detection Reagent is added to simultaneously convert ADP to ATP and allow the newly synthesized ATP to be measured using a luciferase/luciferin reaction. The light generated is measured using a luminometer.
Briefly, CK2a2 (CSNK2a2) (7 nM) in the enzymatic buffer solutions (40 mM Tris, pH 7.5, 20 mM MgCl2, 0.1 mg/ml BSA, 50 μM DTT) were mixed with various concentrations of inhibitors (dissolved in 100% DMSO). These solutions were incubated for 30 minutes at 25° C., and subsequently a mixture of substrate peptide and ATP was added with the final peptide and ATP concentrations at 0.04 mg/ml and 15 μM, respectively. The final reaction mixture of enzyme-substrate-ATP-compound was incubated for 90 minutes at 25° C.
(§1) Afterwards ADP-Glo™ Reagent was added and the mixture was incubated at 25° C. for 60 minutes. Then Kinase Detection Reagent was added, and the final mixture was incubated at 25° C. for 60 minutes. The luminescence signal of the final solution was measured on an Envision instrument (PerkinElmer). The percent (%) inhibition at each concentration of a compound is calculated relative to the luminescence signal in the Max and Min control wells contained within each assay plate. […] The concentrations and percent inhibition values for a test compound are plotted and the concentration of the compound required to achieve 50% inhibition (IC50) is determined with a four-parameter logistic dose response equation.
(In general: ADP-Glo first removes unused ATP, then detects ADP through luciferase.)

The target in a further experiment is T2, human CIT (Homo sapiens, UniProt O14578).
T2 construct: Recombinant human CIT (1-499); GST (N); purchased SignalChem C52-11G; host or cells: Sf9 insect cells
Briefly: CIT enzyme assay (ADP-Glo). Conditions: ADP-Glo, ATP 5 μM; read-out: CIT IC50. It counts as biochemical. How it is done:
The ability of compounds to inhibit human CIT kinase activities was determined using a commercially available ADP-Glo™ Kinase Assay kit (Promega, Cat #V9102) according to the manufacturer's protocol.
Recombinant human CIT (1-499) (expressed in Sf9 insect cells with an N-terminal GST tag) was purchased from SignalChem (Cat #C52-11G). Recombinant full length human MBP (expressed in E. Coli cells with an N-terminal GST tag) was purchased from SignalChem (Cat #M42-54G). This assay, run in a 384-well plate format, is a generic method for measuring kinase activities using an ADP-Glo Kinase Assay Kit. The basic assay procedure involves two steps: (1) Enzymatic step: inhibitors are incubated with the kinase and then ATP (included in the ADP-Glo Kinase Assay Kit) and the MBP protein are added to start the enzymatic reaction; (2) Detection step: after the kinase reaction, first ADP-Glo™ Reagent is added to terminate the kinase reaction and deplete the remaining ATP. Second, the Kinase Detection Reagent is added to simultaneously convert ADP to ATP and allow the newly synthesized ATP to be measured using a luciferase/luciferin reaction. The light generated is measured using a luminometer.
Briefly, CIT (20 nM) in the enzymatic buffer solutions (40 mM Tris, pH 7.5, 20 mM MgCl2, 0.1 mg/ml BSA, 50 μM DTT) were mixed with various concentrations of inhibitors (dissolved in 100% DMSO). These solutions were incubated for 30 minutes at 25° C., and subsequently a mixture of substrate peptide and ATP was added with the final peptide and ATP concentrations at 0.05 mg/ml and 5 μM, respectively. The final reaction mixture of enzyme-substrate-ATP-compound was incubated for 90 minutes at 25° C.
as §1

T1 sequence (P19784 whole entry): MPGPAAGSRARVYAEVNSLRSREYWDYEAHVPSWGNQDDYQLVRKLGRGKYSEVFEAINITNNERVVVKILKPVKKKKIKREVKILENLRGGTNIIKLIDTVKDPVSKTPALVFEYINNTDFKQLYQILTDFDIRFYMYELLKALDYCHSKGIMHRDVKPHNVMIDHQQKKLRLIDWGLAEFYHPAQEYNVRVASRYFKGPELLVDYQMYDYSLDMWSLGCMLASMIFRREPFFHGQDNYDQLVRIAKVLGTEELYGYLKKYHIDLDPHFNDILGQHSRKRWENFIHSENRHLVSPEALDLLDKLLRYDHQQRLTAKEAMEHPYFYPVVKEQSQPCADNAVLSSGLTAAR
T2 sequence (O14578 1-499): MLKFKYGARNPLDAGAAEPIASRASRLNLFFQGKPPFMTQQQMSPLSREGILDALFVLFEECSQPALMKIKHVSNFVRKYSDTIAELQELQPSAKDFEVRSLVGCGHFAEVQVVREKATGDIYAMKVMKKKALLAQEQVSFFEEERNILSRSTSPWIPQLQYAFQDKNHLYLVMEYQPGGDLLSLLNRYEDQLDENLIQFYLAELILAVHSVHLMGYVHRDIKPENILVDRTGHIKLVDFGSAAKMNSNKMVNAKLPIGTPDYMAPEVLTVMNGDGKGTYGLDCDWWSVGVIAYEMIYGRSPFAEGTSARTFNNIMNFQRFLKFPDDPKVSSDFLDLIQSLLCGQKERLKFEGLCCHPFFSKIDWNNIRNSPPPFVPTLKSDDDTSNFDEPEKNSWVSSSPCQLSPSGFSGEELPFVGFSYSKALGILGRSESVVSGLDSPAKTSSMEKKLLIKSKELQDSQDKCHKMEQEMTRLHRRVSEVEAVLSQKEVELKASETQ

For the compound `CN(C1=N/C(=C\c2ccc3c(c2)OCO3)C(=O)N1)c1ccccc1` [Example 1, (Z)-5-(benzo[d][1,3]dioxol-5-ylmethylene)-2-(methyl(phenyl)amino)-3,5-dihydro-4H-imidazol-4-one], the values for the half-inhibitory concentration (IC50) on human CK2a2 (CSNK2a2) and at human CIT were 100 to 1000 nM and > 10000 nM, respectively.
In the case of `O=C1/C(=C/c2ccc3c(c2)OCO3)N=C(N(Cc2ccccc2)c2ccccc2)N1Cc1ccccc1` [Example 2, (Z)-5-(benzo[d][1,3]dioxol-5-ylmethylene)-3-benzyl-2-(benzyl(phenyl)amino)-3,5-dihydro-4H-imidazol-4-one], the half-maximal inhibitory concentration (IC50) on human CIT was > 10000 nM.
Consider `O=C1NC(Nc2ccccc2)=N/C1=C\c1ccc2ncsc2c1` [Example 6, (Z)-5-(benzo[d]thiazol-6-ylmethylene)-2-(phenylamino)-3,5-dihydro-4H-imidazol-4-one], for which the IC50 at human CK2a2 (CSNK2a2) was < 100 nM; on human CIT, 100 to 1000 nM.
On to `CN(C1=N/C(=C\c2ccc3ncsc3c2)C(=O)N1)c1ccccc1` [Example 7, (Z)-5-(benzo[d]thiazol-6-ylmethylene)-2-(methyl(phenyl)amino)-3,5-dihydro-4H-imidazol-4-one], for which the IC50 on human CK2a2 (CSNK2a2) and on human CIT was 100 to 1000 nM each time.
As for `CN(CC1CC1)C1=N/C(=C\c2ccc3c(c2)OCO3)C(=O)N1` [Example 11, (Z)-5-(benzo[d][1,3]dioxol-5-ylmethylene)-2-((cyclopropylmethyl)(methyl)amino)-3,5-dihydro-4H-imidazol-4-one], the IC50 on human CK2a2 (CSNK2a2) was 100 to 1000 nM; at human CIT, > 10000 nM.
The matching figures for `O=C1NC(N(CCO)c2ccccc2)=N/C1=C\c1ccc2c(c1)OCO2` [Example 13, (Z)-5-(benzo[d][1,3]dioxol-5-ylmethylene)-2-((2-hydroxyethyl)(phenyl)amino)-3,5-dihydro-4H-imidazol-4-one]: 100 to 1000 nM and > 10000 nM.
The like results for `COc1ccccc1N(C)C1=N/C(=C\c2ccc3c(c2)OCO3)C(=O)N1` [Example 21, (Z)-5-(benzo[d][1,3]dioxol-5-ylmethylene)-2-((2-methoxyphenyl)(methyl)amino)-3,5-dihydro-4H-imidazol-4-one] were, in that order, 1000 to 10000 nM and > 10000 nM.
Take `O=C1NC(N(Cc2ccccc2)c2ccccc2)=N/C1=C\c1ccc2c(c1)OCO2` [Example 22, (Z)-5-(benzo[d][1,3]dioxol-5-ylmethylene)-2-(benzyl(phenyl)amino)-3,5-dihydro-4H-imidazol-4-one]: the 50% inhibitory concentration (IC50) on human CK2a2 (CSNK2a2) and at human CIT was > 10000 nM throughout.
Turning to `CN(Cc1ccccc1)C1=N/C(=C\c2ccc3c(c2)OCO3)C(=O)N1` [Example 23, (Z)-5-(benzo[d][1,3]dioxol-5-ylmethylene)-2-(benzyl(methyl)amino)-3,5-dihydro-4H-imidazol-4-one], the IC50 on human CK2a2 (CSNK2a2) and at human CIT was > 10000 nM each time.
Take `CN(C1=N/C(=C\c2ccc3c(c2)OCO3)C(=O)N1)c1ccc(N)cc1` [Example 37, (Z)-2-((4-aminophenyl)(methyl)amino)-5-(benzo[d][1,3]dioxol-5-ylmethylene)-3,5-dihydro-4H-imidazol-4-one]: the 50% inhibitory concentration (IC50) at human CK2a2 (CSNK2a2) was 100 to 1000 nM; on human CIT, > 10000 nM.
On to `COc1ccc(N(C)C2=N/C(=C\c3ccc4ncsc4c3)C(=O)N2)cc1` [Example 38, (Z)-5-(benzo[d]thiazol-6-ylmethylene)-2-((4-methoxyphenyl)(methyl)amino)-3,5-dihydro-4H-imidazol-4-one], for which the IC50 lay in the range of 100 to 1000 nM at human CK2a2 (CSNK2a2) and 1000 to 10000 nM at human CIT.
Consider `O=C1NC(Nc2ccc(Cl)cc2)=N/C1=C\c1ccc2ncsc2c1` [Example 40, (Z)-5-(benzo[d]thiazol-6-ylmethylene)-2-((4-chlorophenyl)amino)-3,5-dihydro-4H-imidazol-4-one], for which the half-inhibitory concentration (IC50) was > 10000 nM at human CK2a2 (CSNK2a2) and 100 to 1000 nM on human CIT.
The like results for `O=C1/C(=C/c2ccc3ncsc3c2)N=C(N(Cc2ccccc2)c2ccccc2)N1Cc1ccccc1` [Example 42, (Z)-5-(benzo[d]thiazol-6-ylmethylene)-3-benzyl-2-(benzyl(phenyl)amino)-3,5-dihydro-4H-imidazol-4-one] were, in that order, > 10000 nM and > 10000 nM.
Take `CN(C1=N/C(=C\c2ccc3ncsc3c2)C(=O)N1)c1ccc(N)cc1` [Example 44, (Z)-2-((4-aminophenyl)(methyl)amino)-5-(benzo[d]thiazol-6-ylmethylene)-3,5-dihydro-4H-imidazol-4-one]: the IC50 on human CK2a2 (CSNK2a2) and at human CIT was 100 to 1000 nM in each case.
Consider `CC(C)NC1=N/C(=C\c2ccc3ncsc3c2)C(=O)N1C` [Example 45, (Z)-5-(benzo[d]thiazol-6-ylmethylene)-2-(isopropylamino)-3-methyl-3,5-dihydro-4H-imidazol-4-one], for which the IC50 fell in the range of 1000 to 10000 nM at human CK2a2 (CSNK2a2) and 100 to 1000 nM at human CIT.
On to `Cn1cnc2ccc(/C=C3\N=C(Nc4ccccc4)NC3=O)cc21` [Example 46, (Z)-5-((1-methyl-1H-benzo[d]imidazol-6-yl)methylene)-2-(phenylamino)-3,5-dihydro-4H-imidazol-4-one], for which the IC50 was < 100 nM at human CK2a2 (CSNK2a2) and 100 to 1000 nM at human CIT.
The like results for `O=C1NC(Nc2ccc3ncsc3c2)=N/C1=C\c1ccc2c(c1)OCO2` [Example 47, (Z)-5-(benzo[d][1,3]dioxol-5-ylmethylene)-2-(benzo[d]thiazol-6-ylamino)-3,5-dihydro-4H-imidazol-4-one] were, in that order, > 10000 nM and > 10000 nM.
In the case of `O=C1NC(Nc2ccc3ncsc3c2)=N/C1=C\c1ccc2ncsc2c1` [Example 48, (Z)-2-(benzo[d]thiazol-6-ylamino)-5-(benzo[d]thiazol-6-ylmethylene)-3,5-dihydro-4H-imidazol-4-one], the IC50 was < 100 nM on human CK2a2 (CSNK2a2) and 100 to 1000 nM at human CIT.
The like results for `O=C1NC(Nc2ccccc2)=N/C1=C\c1ccc2occc2c1` [Example 52, (Z)-5-(benzofuran-5-ylmethylene)-2-(phenylamino)-3,5-dihydro-4H-imidazol-4-one] were, in that order, > 10000 nM and > 10000 nM.
Turning to `O=C1NC(Nc2ccccc2)=N/C1=C\c1ccc2ncccc2c1` [Example 53, (Z)-2-(phenylamino)-5-(quinolin-6-ylmethylene)-3,5-dihydro-4H-imidazol-4-one], the IC50 at human CK2a2 (CSNK2a2) and at human CIT was > 10000 nM throughout.
Turning to `CN(C1=N/C(=C\c2ccc3c(c2)OCO3)C(=O)N1)c1ccc2ncsc2c1` [Example 70, (Z)-5-(benzo[d][1,3]dioxol-5-ylmethylene)-2-(benzo[d]thiazol-6-yl(methyl)amino)-3,5-dihydro-4H-imidazol-4-one], the results for the IC50 on human CK2a2 (CSNK2a2) and at human CIT were 100 to 1000 nM and > 10000 nM, respectively.
Consider `O=C1NC(Nc2ccc3nccnc3c2)=N/C1=C\c1ccc2ncsc2c1` [Example 82, (Z)-5-(benzo[d]thiazol-6-ylmethylene)-2-(quinoxalin-6-ylamino)-3,5-dihydro-4H-imidazol-4-one], for which the IC50 was < 100 nM at human CK2a2 (CSNK2a2) and > 10000 nM at human CIT.
As for `CN(C1=N/C(=C\c2ccc3ncsc3c2)C(=O)N1)c1ccc2ncsc2c1` [Example 83, (Z)-2-(benzo[d]thiazol-6-yl(methyl)amino)-5-(benzo[d]thiazol-6-ylmethylene)-3,5-dihydro-4H-imidazol-4-one], the concentration for half-maximal inhibition (IC50) at human CK2a2 (CSNK2a2) and on human CIT was 100 to 1000 nM in each case.

A word on the IC50: it is the concentration at which inhibition is half-maximal.
